Source: paper PMC6686011, “Ruthenium(II) complexes with 6-methyl-2-thiouracil selectively reduce cell proliferation, cause DNA double-strand break and trigger caspase-mediated apoptosis through JNK/p38 pathways in human acute promyelocytic leukemia cells” (Scientific Reports, 2019)

Columns and labels:
any cells = assay: Cytotoxicity, alamar blue assay, whole cell panel; type: cell-based; conditions: 72 h, not cytotoxic at concentrations tested
Method: (§1) Cytotoxicity was measured using alamar blue assay and was performed following the procedure that was described previously[21],[22]. Briefly, cells were inserted in 96-well plates and incubated overnight. Then, the complexes were dissolved in dimethyl sulfoxide (DMSO, LGC Biotechnology, São Paulo, SP, Brazil) and added to each well and incubated for 72 h. […] Before the end of treatment (4 h for cell lines and 24 h for PBMC), 20 μL of a stock solution (0.312 mg/mL) of alamar blue (resazurin, Sigma-Aldrich Co.) were added to each well. Absorbance at 570 nm and 600 nm was measured using SpectraMax 190 Microplate Reader (Molecular Devices, Sunnyvale, CA, USA).

B16-F10 (mouse melanoma) = assay: Cytotoxicity, alamar blue assay; type: cell-based; conditions: for Selectivity index, B16-F10 versus MRC-5: SI = IC50[MRC-5]/IC50[B16-F10]; for Selectivity index, B16-F10 versus PBMC: SI = IC50[PBMC]/IC50[B16-F10]
Method: as §1

[1] = system: BAD KO SV40 MEF (immortalized mouse embryonic fibroblast with the BAD gene knocked out); assay: Cytotoxicity, alamar blue assay; type: cell-based; conditions: 72 h, read-out: IC50, BAD KO SV40 MEF cell line
Method: as §1

[2] = system: HCT116 (human colon carcinoma); assay: Cytotoxicity, alamar blue assay; type: cell-based; conditions: for Selectivity index, HCT116 versus MRC-5: SI = IC50[MRC-5]/IC50[HCT116]; for Selectivity index, HCT116 versus PBMC: SI = IC50[PBMC]/IC50[HCT116]
Method: as §1

[3] = system: HL-60 (human acute promyelocytic leukemia); assay: Cytotoxicity, alamar blue assay; type: cell-based; conditions: for Selectivity index, HL-60 versus MRC-5: SI = IC50[MRC-5]/IC50[HL-60]; for Selectivity index, HL-60 versus PBMC: SI = IC50[PBMC]/IC50[HL-60]; for IC50: alamar blue, 72 h, read-out: IC50 and 95% CI, HL-60
Method: as §1

[4] = system: HSC-3 (human oral squamous cell carcinoma); assay: Cytotoxicity, alamar blue assay; type: cell-based; conditions: for Selectivity index, HSC-3 versus MRC-5: SI = IC50[MRC-5]/IC50[HSC-3]; for Selectivity index, HSC-3 versus PBMC: SI = IC50[PBMC]/IC50[HSC-3]; for IC50: alamar blue, 72 h, read-out: IC50 and 95% CI, HSC-3
Method: as §1

[5] = system: HepG2 (human hepatocellular carcinoma); assay: Cytotoxicity, alamar blue assay; type: cell-based; conditions: for Selectivity index, HepG2 versus MRC-5: SI = IC50[MRC-5]/IC50[HepG2]; for Selectivity index, HepG2 versus PBMC: SI = IC50[PBMC]/IC50[HepG2]
Method: as §1

[6] = system: K-562 (human chronic myelogenous leukemia); assay: Cytotoxicity, alamar blue assay; type: cell-based; conditions: for Selectivity index, K-562 versus MRC-5: SI = IC50[MRC-5]/IC50[K-562]; for Selectivity index, K-562 versus PBMC: SI = IC50[PBMC]/IC50[K-562]
Method: as §1

[7] = system: MRC-5 (human lung fibroblast); assay: Cytotoxicity, alamar blue assay; type: cell-based; conditions: non-cancer cells, 72 h, read-out: IC50 and 95% CI, MRC-5
Method: as §1

[8] = system: SCC-4 (human oral squamous cell carcinoma); assay: Cytotoxicity, alamar blue assay; type: cell-based; conditions: for Selectivity index, SCC-4 versus MRC-5: SI = IC50[MRC-5]/IC50[SCC-4]; for Selectivity index, SCC-4 versus PBMC: SI = IC50[PBMC]/IC50[SCC-4]
Method: as §1

[9] = system: WT SV40 MEF (wild-type immortalized mouse embryonic fibroblasts); assay: Cytotoxicity, alamar blue assay; type: cell-based; conditions: 72 h, read-out: IC50, WT SV40 MEF cell line
Method: as §1

[10] = system: PBMC (human peripheral blood mononuclear cells); assay: Cytotoxicity, alamar blue assay; type: cell-based; conditions: non-cancer cells, 72 h, read-out: IC50 and 95% CI, PBMC
Text: HL-60 (human acute promyelocytic leukemia), K-562 (human chronic myelogenous leukemia), HCT116 (human colon carcinoma), HepG2 (human hepatocellular carcinoma), HSC-3 (human oral squamous cell carcinoma), SCC-9 (human oral squamous cell carcinoma), B16-F10 (mouse melanoma), MRC-5 (human lung fibroblast), WT SV40 MEF (wild-type immortalized mouse embryonic fibroblast) and BAD KO SV40 MEF (BAD gene knockout immortalized mouse embryonic fibroblast) cell lines were obtained from American Type Culture Collection (ATCC, Manassas, VA, USA). Human peripheral blood mononuclear cells (PBMC) were isolated using standard Ficoll density gradient from heparinized blood collected from 20- to 35-year-old, non-smoker healthy donors with informed consent (number 031019/2013) approved by Human Ethics Committee of Gonçalo Moniz Institute from Oswaldo Cruz Foundation (IGM-FIOCRUZ/BA), and all experiments were performed in accordance with relevant guidelines and regulations. Cells were cultured as recommended by ATCC guidelines and a mycoplasma stain kit (Sigma-Aldrich) was used to validate the use of cells free from contamination. Cell viability in all experiments was examined using the trypan blue exclusion (TBE) assay. Over 90% of the cells were viable at the beginning of the culture.
as §1

HL-60 cells [11] = assay: Trypan blue exclusion assay; type: cell-based, human
Method: The number of viable cells and non-viable (take up trypan blue) were counted by TBE method. Shortly, 90 μL was removed from the cell suspension and 10 μL of trypan blue (0.4%) was added. Cell counting was performed using a light microscope with a neubauer chamber.

HL-60 cells [12] = assay: Apoptosis quantification, annexin V-FITC/PI flow cytometry; type: cell-based, human
Method: Shortly, cells were washed twice with saline solution and resuspended in 100 μL of binding buffer plus 5 μL of propidium iodide (PI) and 5 μL of FITC Annexin V. Then, cells were gently mixed by vortexing and incubated for 15 min at room temperature in the dark. Finally, 400 μL of binding buffer was added to each tube, and the cell fluorescence was determined by flow cytometry, as described above. Percentage of viable, early apoptotic, late apoptotic and necrotic cells were measured. […] Cells were then analyzed by FITC Annexin V Apoptosis Detection assay as described above.

HL-60 cell xenografts = assay: Human myeloid leukemia xenograft model; type: in vivo, C.B-17 SCID mice
Method: Fifty six specific-pathogen-free (SPF) C.B-17 severe combined immunodeficient (SCID) mice (females, 23–26 g) were used in this study. The animals were obtained and maintained at animal facilities from Gonçalo Moniz Institute-FIOCRUZ (Salvador, Bahia, Brazil), and housed in cages with free access to food and water, and kept under a 12:12 h light-dark cycle (lights on at 6:00 a.m.). The animals were treated according to ethical principles for animal experimentation of SBCAL (Brazilian Association of Laboratory Animal Science), Brazil. Experimental protocol have been approved (number 06/2015) by Animal Ethics Committee of Gonçalo Moniz Institute-FIOCRUZ (Salvador, Bahia, Brazil).
Human myeloid leukemia xenograft model was carry out as described previously by Rodrigues et al.[26] with minor modifications. HL-60 cells (2.5 × 10^7 cells/500 µL) were implanted subcutaneously into the left front armpit of the mice. […] When the tumors reached 100 to 200 mm^3 (22 days after HL-60 cells injection), the animals were treated through the intraperitoneal route (200 µL per animal) once a day for 13 consecutive days. One day after the end of the treatment, the animals were anesthetized, and peripheral blood samples were collected from brachial artery. Animals were euthanized by anesthetic overdose, and tumors were excised and weighed.

[13] = Toxicological evaluation in xenograft mice; type: in vivo, C.B-17 SCID mice; conditions: complex 1 20 and 40 mg/kg
Method: To assess toxicological aspects, mice were weighed at the beginning and at the end of the experiment as described previously by Rodrigues et al.[26]. […] Hematological analysis was performed using the Advia 60 hematology system (Bayer, Leverkusen, Germany). Livers, kidneys, lungs and hearts were removed, weighed and examined for any signs of macroscopic lesions, color changes and/or hemorrhages. After macroscopic examination, tumors, livers, kidneys, lungs and hearts were fixed in 4% formalin buffer and embedded in paraffin. Tissue sections were stained with hematoxylin/eosin staining, and a pathologist performed the histological analyses under optical microscopy.

HL-60 cells [14] = assay: Intracellular ruthenium quantification by energy dispersive X-ray spectrometer; type: cell-based, human; conditions: HL-60, 3 h, 500 µM
Method: Intracellular ruthenium quantification in HL-60 cells was evaluated by energy dispersive X-ray spectrometer (EDS)[23]. Cells were fixed in sodium cacodylate buffer (0.1 M sodium cacodylate solution pH 7.4, plus 2.5% glutaraldehyde and 2% paraformaldehyde) for at least 2 h. After washing, cells were dehydrated in an acetone series and embedded in polybed epoxy resin (Polysciences; Warrington, PA). Ultrathin sections were examined under a JEM-1230 transmission electron microscope (TEM) integrated with an EDS microanalytics system (JEOL USA, Inc., Peabody, MA, USA).

[15] = 20 mg/kg intraperitoneal once a day for 13 consecutive days
[16] = 40 mg/kg intraperitoneal once a day for 13 consecutive days

Compound | Selectivity index, B16-F10 versus MRC-5 (B16-F10 (mouse melanoma)) | Selectivity index, B16-F10 versus PBMC (B16-F10 (mouse melanoma)) | IC50 [1] [µM] | Selectivity index, HCT116 versus MRC-5 [2] | Selectivity index, HCT116 versus PBMC [2] | Selectivity index, HL-60 versus MRC-5 [3] | Selectivity index, HL-60 versus PBMC [3] | IC50 [3] [µM] | Selectivity index, HSC-3 versus MRC-5 [4] | Selectivity index, HSC-3 versus PBMC [4] | IC50 [4] [µM] | Selectivity index, HepG2 versus MRC-5 [5] | Selectivity index, HepG2 versus PBMC [5] | Selectivity index, K-562 versus MRC-5 [6] | Selectivity index, K-562 versus PBMC [6] | IC50 [7] [µM] | Selectivity index, SCC-4 versus MRC-5 [8] | Selectivity index, SCC-4 versus PBMC [8] | IC50 [9] [µM] | IC50 [10] [µM] | other results
Cc1cc(=O)[nH]c(=S)[nH]1 [6-methyl-2-thiouracil] |  |  |  |  |  |  |  |  |  |  |  |  |  |  |  |  |  |  |  |  | IC50 (any cells): > 176 µM
Cc1cc(=O)[nH]c([S][Ru]([S]c2nc(C)cc(=O)[nH]2)([PH](c2ccccc2)(c2ccccc2)c2ccccc2)[PH](c2ccccc2)(c2ccccc2)c2ccccc2)n1 [Complex 1, cis-[Ru(6m2tu)2(PPh3)2]] | 6.9 | 3.1 | 3.1 | 4.1 | 1.9 | 571 | 257 | 0.01 | 1.3 | 0.6 | 4.37 | 6 | 2.7 | 28.6 | 12.9 | 5.71 | 3.5 | 1.6 | 3.5 | 2.57 | Reduction of the number of viable cells (HL-60 cells [11]; HL-60, 12 h, 1 μM): no statistically significant reduction; Reduction of the number of viable cells (HL-60 cells [11]; HL-60, 12 h, 2 μM): 36.9%; Reduction of the number of viable cells (HL-60 cells [11]; HL-60, 24 h, 1 μM): 65.3%; Reduction of the number of viable cells (HL-60 cells [11]; HL-60, 24 h, 2 μM): 77.1%; Apoptosis (annexin V-FITC positive cells) (HL-60 cells [12]; HL-60, 12 h, 1 μM): no statistically significant apoptosis induction; Apoptosis (annexin V-FITC positive cells) (HL-60 cells [12]; HL-60, 12 h, 2 μM): 37.2%; Apoptosis (annexin V-FITC positive cells) (HL-60 cells [12]; HL-60, 24 h, 1 μM): 38.5%; Apoptosis (annexin V-FITC positive cells) (HL-60 cells [12]; HL-60, 24 h, 2 μM): 66.4%; Mean of tumor mass weight (HL-60 cell xenografts; [15]): 0.4 ± 0.1 g; Tumor mass inhibition rate (HL-60 cell xenografts; [15]): 73.1%; Mean of tumor mass weight (HL-60 cell xenografts; [16]): 0.3 ± 0.1 g; Tumor mass inhibition rate (HL-60 cell xenografts; [16]): 79.9%; Tumor histomorphological analysis (HL-60 cell xenografts; 20 and 40 mg, hematoxylin/eosin): areas with nodular/encapsulated growth and extracellular matrix formation were more evident; Liver histopathology [13]: focal areas of steatosis were observed; Kidney histopathology ([13]; doxorubicin 0.1 mg/kg): Coagulation necrosis was observed in renal tubules; Lung histopathology ([13]; doxorubicin 0.1 mg/kg): inflammation was more evident
N.N.[Cl][Pt][Cl] [cisplatin] |  |  |  |  |  |  |  |  |  |  |  |  |  |  |  |  |  |  |  |  | Intracellular platinum (HL-60 cells [14]): able to quantify platinum
O=C1[O][Pt]2([NH][C@@H]3CCCC[C@H]3[NH]2)[O]C1=O [oxaliplatin, reference compound] |  |  |  |  |  |  |  |  |  |  |  |  |  |  |  | 1.54 |  |  |  | 14.9 | IC50 (B16-F10 (mouse melanoma); alamar blue, 72 h, read-out: IC50 and 95% CI, B16-F10): 0.03 µM; Intracellular platinum (HL-60 cells [14]): able to quantify platinum
[Ru(6m2tu)2(dppb)] [Complex 2] | 2.9 | 1.2 | 4.2 | 2.6 | 1.1 | 23.5 | 9.6 | 0.13 | 1.5 | 0.6 | 2.04 | 3.7 | 1.5 | 9 | 3.7 | 3.06 | 2.5 | 1 | 3.9 | 1.25 | Reduction of the number of viable cells (HL-60 cells [11]; HL-60, 12 h, 1 μM): no statistically significant reduction; Reduction of the number of viable cells (HL-60 cells [11]; HL-60, 12 h, 2 μM): 44.1%; Reduction of the number of viable cells (HL-60 cells [11]; HL-60, 24 h, 1 μM): 36.1%; Reduction of the number of viable cells (HL-60 cells [11]; HL-60, 24 h, 2 μM): 60.1%; Apoptosis (annexin V-FITC positive cells) (HL-60 cells [12]; HL-60, 12 h, 1 μM): no statistically significant apoptosis induction; Apoptosis (annexin V-FITC positive cells) (HL-60 cells [12]; HL-60, 12 h, 2 μM): 31.1%; Apoptosis (annexin V-FITC positive cells) (HL-60 cells [12]; HL-60, 24 h, 1 μM): 32.1%; Apoptosis (annexin V-FITC positive cells) (HL-60 cells [12]; HL-60, 24 h, 2 μM): 55.9%
